This is an account of results in patent publication US5776932A, “1,3,5-tribsubstituted indazole derivatives, processes for preparing, and for pharmacological treatment therewith” (Arzneimittelwerk Dresden G.m.b.H., priority 1996, dated 1998).

For assay [1], the system named is tracheal segments from actively sensitized guinea-pigs. As to the kind of experiment: Inhibition of the antigen (ovalbumin)-induced contraction of isolated tracheal segments from actively sensitized guinea-pigs. More on the design: species or system guinea-pig. Conditions: Cavia porcellus, under mepyramine and indomethacin protection. How it is done:
For this purpose, isolated tracheal segments from guinea-pigs actively sensitized against ovalbumin by the s.c. administration of 10 μg of ovalbumin with 1 mg of aluminum hydroxide adjuvant, three weeks before removal of the organ, and a booster dose of the same amount of ovalbumin and aluminum hydroxide s.c. one week before removal of the organ. The segments were placed in organ baths filled with a nutrient solution aerated with carbogen which is a mixture of 95% oxygen and 5% carbon dioxide, and kept at 37° C., and were connected to isometric force transducers. After preincubation with mepyramine to eliminate histamine, and indomethacin for the inhibition of cyclooxygenase, 5×10^-7 mol/l carbachol (carbamylcholine chloride) was added and a contraction was induced. 10 μg/ml ovalbumin as an allergen was then added to the bath liquid and the maximum contraction of the tracheal segments which was thereby induced was correlated with the effect of the carbachol as control (=100%). The test substances were added to the organ bath 30 minutes before the allergen-induced contraction. Table 2 below indicates the IC50 values, i.e. the concentrations which cause a 50% inhibition of the contraction of isolated tracheal segments from the guinea-pig. The IC50 values were determined by testing 3-4 concentrations on 4-8 organs in each case.

The test system of assay [2] is SRS-A bronchoconstriction in guinea-pigs sensitized with ovalbumin. Briefly: SRS-A bronchoconstriction in anaesthetized, ovalbumin-sensitized guinea-pigs after inhalation of antigen. In kind it is in vivo. Conditions: -2 hrs, 1% OA, 20 inspirations. How it is done: For this purpose, guinea-pigs are actively sensitized against ovalbumin (OA) with 20 μg OA+20 mg Al(OH)3 in 0.5 ml, administered intraperitoneally (i.p.) and a booster dose of the same is administered 14 days later. One week after the booster dose, the animals are i.p. anaesthetized with urethane and connected to an apparatus (Mumed Physiological Recorder 800) for the determination of pulmonary function parameters. The animals are pretreated with mepyramine to antagonize the histamine, with indomethacin to inhibit the formation of prostaglandins, and with propanolol to eliminate β-adrenergic mechanisms. If an allergic reaction is induced after this treatment, the associated bronchospam is extensively attributable to the effect of leukotrienes.
Before the experiment the test substances were administered orally two hours before the challenge. After an equilibration period an asthmatic challenge attack is induced by the nebulization of a 1% ovalbumin solution over 20 inspirations.
The drop in dynamic compliance is used as a suitable and well reproducible parameter for characterizing the action of leukotrienes. Under control conditions, after pretreatment and ovalbumin challenge, guinea-pigs react with a slow drop in compliance of c. 30-40% over 15 minutes.

Assay [3] deals with late phase eosinophilia. As to the kind of experiment: Inhibition of late phase eosinophilia 24 hours after the inhalational ovalbumin challenge on actively sensitized guinea-pigs. In kind it is in vivo. Conditions: -2 h; for EOS, B (eosinophils in the group treated with the substance, with challenge): x ± s. The source says: Eosinophilic granulocytes play an important part in the transition of allergic diseases, e.g. bronchial asthma, to the chronic stage. Thus the bronchoalveolar lavage fluid (BAL) contains an increased number of eosinophils a few hours after an allergen-induced asthmatic attack. Eosinophils are expected to play an important part in cell damage since they contain histotoxic proteins, like major basic protein (MBP) and eosinophil cation protein (ECP), in their granula. It is also assumed that substances which prevent the infiltration of eosinophils have a therapeutic action against allergic diseases like bronchial asthma.
The inhibition of eosinophil infiltration by the substances was tested in vivo on guinea-pigs actively sensitized against ovalbumin by the substantenous administration of 10 μg of OA, with 1 μg of aluminum hydroxide adjuvant, three weeks before the beginning of the experiment, and a booster dose containing the same amount of OA and aluminum hydroxide was administrated substantaneously one week before the beginning of the experiment. Three weeks after the first sensitization, the animals were placed in a plastic box and exposed to an aerosol of 0.5% OA dissolved in a physiological saline solution. The nebulization time was 20-30 seconds. After 24 hours the animals were intraperitoneally anaesthetized with 1.5 g/kg body weight ethylurethane and a bronchioalveolar lavage was performed with 2×5 ml of physiological saline solution. The lavage fluid was collected and centrifuged at 400 G for 10 minutes and the cell pellet was then resuspended in 1 ml of physiological saline solution. The eosinophils were microscopically counted in a Neubauer chamber after staining using the No. 5877 Becton-Dickinson test kit for eosinophilia. The number of eosinophils was indicated in millions per animal. Each test was also carried out with two control groups with and without antigen challenge.
The percentage inhibition of the eosinophilia in the experimental groups treated with the substance is calculated by the following formula:
(A-C)-(B-C)/(A-C)×100=% inhibition
The test substances were administered orally or intraperitoneally as a triturate in 0.5% 5-hydroxyethylcellulose two hours before the antigen challenge.

Assay [4] concerns the target T1, arachidonate-5-lipoxygenase (Rattus norvegicus, UniProt P12527).
T1 construct: using prepared macrophages from Wistar rats; endogenous in cells; host or cells: prepared macrophages from Wistar rats
T1 sequence (P12527 1-673): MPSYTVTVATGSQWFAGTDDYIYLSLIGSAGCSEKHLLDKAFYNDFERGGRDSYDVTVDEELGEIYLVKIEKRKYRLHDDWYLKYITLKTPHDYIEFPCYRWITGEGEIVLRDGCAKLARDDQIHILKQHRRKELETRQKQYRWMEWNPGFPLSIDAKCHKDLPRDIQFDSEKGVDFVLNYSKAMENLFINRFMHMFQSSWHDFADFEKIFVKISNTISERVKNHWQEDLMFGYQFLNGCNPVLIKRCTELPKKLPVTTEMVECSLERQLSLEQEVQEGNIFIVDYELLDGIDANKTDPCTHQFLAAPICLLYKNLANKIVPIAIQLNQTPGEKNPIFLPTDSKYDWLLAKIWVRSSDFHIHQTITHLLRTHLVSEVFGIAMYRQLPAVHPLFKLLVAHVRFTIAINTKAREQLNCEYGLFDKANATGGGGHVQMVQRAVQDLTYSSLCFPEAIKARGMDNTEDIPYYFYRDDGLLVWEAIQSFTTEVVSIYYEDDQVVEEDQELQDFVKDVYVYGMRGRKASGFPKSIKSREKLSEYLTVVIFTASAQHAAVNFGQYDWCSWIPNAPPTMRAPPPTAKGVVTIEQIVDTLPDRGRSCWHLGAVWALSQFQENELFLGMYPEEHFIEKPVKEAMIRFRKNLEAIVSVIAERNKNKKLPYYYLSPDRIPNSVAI
As to the kind of experiment: Inhibition of 5-lipoxygenase in prepared macrophages from Wistar rats. It is filed as cell-based. Conditions: quadruple determinations, mean IC50, read-out: IC50 (50% inhibition of 5-lipoxygenase). From the text: Murphy, R. C. and Matthews, W. R., Purification and Characterization of Leukotrienes from Mastocytoma Cells, Methods in Enzymology, 86, pp. 409-416.
Argentiere, D. D., Ritchie, D. M. et al., Tepoxalin: A Dual Cyclooxygenase/5-Lipoxygenase Inhibitor of Arachidonic Acid Metabolism with Potent Anti-inflammatory Activity and a Favorable Gastrointestinal Profile, The Journal of Pharmacology and Experimental Therapeutics, Vol. 271, No. 3, 1399-1408, 1994.
Carter, G. W., Young, P. R. et al., 5-Lipoxygenase Inhibitory activity of Zileuton, The Journal of Pharmacology and Experimental Therapeutics, Vol. 256, No. 3, 1991.
The experiments were all conducted as quadruple determinations, by combining four partial experiments in each case were combined to determine the mean IC50 value.

Regarding `COc1ccc2c(c1)c(O)nn2Cc1ccc(Cl)c(Cl)c1` [Example 6, 1-(3,4-dichlorobenzyl)-5-methoxy-1H-indazole-3-ol], in assay [1] (at 3.0 μmol/l, read-out: maximum inhibition (ovalbumin-induced contraction)), the inhibition at 3 µM is 40%. The “% drop in dyn. compliance” value in assay [2] (5.0 mg/kg oral) was found to be 25 ± 9.9%; in assay [2] (10.0 mg/kg oral), 7.0 ± 2.7%. Also, the “% inhibition” value in assay [2] (5.0 mg/kg oral) was found to be 38%; in assay [2] (10.0 mg/kg oral) it was 83%. For the same molecule, the “% inhibition (eosinophilia)” value was 58.8% in assay [3] (1 mg/kg i.p.) and 40.4% in assay [3] (30 mg/kg p.o.). The figures for the “EOS, B (eosinophils in the group treated with the substance, with challenge)” value in assay [3] (1 mg/kg i.p.) and in assay [3] (30 mg/kg p.o.) were 2.9 ± 1.2 mill./animal and 3.5 ± 1.7 mill./animal, respectively. The IC50 in assay [4] was 410 nM.

For the molecule `COc1ccc2c(c1)c(O)nn2Cc1ccc(OCc2ccc3ccccc3n2)cc1` [Example 50], the IC50 in assay [1] (carbachol = 100%) came to 2900 nM; in assay [4], 44 nM. Moreover, the “% drop in dyn. compliance” value in assay [2] (5.0 mg/kg oral) is 22 ± 10%; in assay [2] (10.0 mg/kg oral), 12 ± 11%. The “% inhibition” value in assay [2] (5.0 mg/kg oral) is given as 45%; in assay [2] (10.0 mg/kg oral), 70%. For the same molecule, the entries for the “% inhibition (eosinophilia)” value in assay [3] (10 mg/kg i.p.) and in assay [3] (30 mg/kg p.o.) were 46.0% and 34.0%, respectively. The “EOS, B (eosinophils in the group treated with the substance, with challenge)” value in assay [3] (10 mg/kg i.p.) is 3.8 ± 2.8 mill./animal; in assay [3] (30 mg/kg p.o.), 6.0 ± 3.4 mill./animal.
